Assay results published in ChEMBL document CHEMBL4190346, “Structure-based design, synthesis, and biological evaluation of withaferin A-analogues as potent apoptotic inducers” (Eur J Med Chem, 2017).
Numbered stars: 1 amine (or outer) side, 2 acyl side, 3 side chain; on linkers, the order of the positions; unused ones are H or OH. Bridge positions count the residues as written; N and C are the ends. Square brackets hold non-standard residues; d marks the D form. Peptide text beside a SMILES is read from it. I, II: the chains in the order shown. Actinocin(1to9) = Cc1c2oc3c(C)ccc(C(=O)[*:2])c3nc-2c(C(=O)[*:1])c(N)c1=O; NMeV = CN[C@H](C(=O)O)C(C)C; Sar = CNCC(=O)O

Assays:
[1] = test system: MCF7; test: Cytotoxicity against human MCF7 cells assessed as reduction in cell viability using compound addition to cell culture cells in log phase of growth and incubated for 48 hrs by MTT assay; assay type: functional, cell-based; conditions: Homo sapiens, MCF7, 48 h; read-out: IC50
[2] = test system: HeLa; test: Cytotoxicity against human HeLa cells assessed as reduction in cell viability using compound addition to cell culture cells in log phase of growth and incubated for 48 hrs by MTT assay; assay type: functional, cell-based; conditions: Homo sapiens, HeLa, 48 h; read-out: IC50
[3] = test system: Vero; test: Cytotoxicity against African green monkey Vero cells assessed as reduction in cell viability using compound addition to cell culture cells in log phase of growth and incubated for 48 hrs by MTT assay; assay type: cell-based, Chlorocebus sabaeus; conditions: Chlorocebus sabaeus, Vero, 48 h; read-out: IC50
[4] = test system: A549; test: Cytotoxicity against human A549 cells assessed as reduction in cell viability using compound addition to cell culture cells in log phase of growth and incubated for 48 hrs by MTT assay; assay type: functional, cell-based; conditions: Homo sapiens, A549, 48 h; read-out: IC50
[5] = test system: HeLa; test: Cytotoxicity against human HeLa cells assessed as reduction in cell viability using compound addition to cell culture cells in lag phase of growth and incubated for 48 hrs by MTT assay; assay type: functional, cell-based; conditions: Homo sapiens, HeLa, 48 h; read-out: IC50
[6] = test system: A549; test: Cytotoxicity against human A549 cells assessed as reduction in cell viability using compound addition to cell culture cells in lag phase of growth and incubated for 48 hrs by MTT assay; assay type: functional, cell-based; conditions: Homo sapiens, A549, 48 h; read-out: IC50
[7] = test system: MCF7; test: Cytotoxicity against human MCF7 cells assessed as reduction in cell viability using compound addition to cell culture cells in lag phase of growth and incubated for 48 hrs by MTT assay; assay type: functional, cell-based; conditions: Homo sapiens, MCF7, 48 h; read-out: IC50
[8] = test system: Vero; test: Cytotoxicity against African green monkey Vero cells assessed as reduction in cell viability using compound addition to cell culture cells in lag phase of growth and incubated for 48 hrs by MTT assay; assay type: cell-based, Chlorocebus sabaeus; conditions: Chlorocebus sabaeus, Vero, 48 h; read-out: IC50

Compound	IC50 [1]	IC50 [2]	IC50 [3]	IC50 [4]	IC50 [5]	IC50 [6]	IC50 [7]	IC50 [8]
CC1=C(CO)C(=O)O[C@@H]([C@@H](C)[C@H]2CC[C@H]3[C@@H]4C[C@H]5O[C@]56[C@@H](O)CCC(=O)[C@]6(C)[C@H]4CC[C@]23C)C1	12.2 µM	32.2 µM	24.2 µM	19.7 µM				
CC1=C(CO)C(=O)O[C@@H]([C@@H](C)[C@H]2CC[C@H]3[C@@H]4C[C@H]5O[C@]56[C@@H](O)[C@@H](NCc5ccccc5)CC(=O)[C@]6(C)[C@H]4CC[C@]23C)C1	6.6 µM	11 µM	7.8 µM	13.8 µM	8.5 µM	10 µM	7.2 µM	13.1 µM
CCCCN[C@H]1CC(=O)[C@]2(C)[C@H]3CC[C@]4(C)[C@@H]([C@H](C)[C@H]5CC(C)=C(CO)C(=O)O5)CC[C@H]4[C@@H]3C[C@H]3O[C@]32[C@H]1O	6.9 µM	8.4 µM	20.6 µM	9.6 µM	9.6 µM	21.8 µM	7.6 µM	13.6 µM
CCC(=O)OCC1=C(C)C[C@H]([C@@H](C)[C@H]2CC[C@H]3[C@@H]4C[C@H]5O[C@]56C(=O)C=CC(=O)[C@]6(C)[C@H]4CC[C@]23C)OC1=O	2.3 µM	6.8 µM	1.1 µM	8.3 µM	4.7 µM	4.2 µM	6 µM	3.8 µM
CC1=C(COC(=O)c2ccoc2)C(=O)O[C@@H]([C@@H](C)[C@H]2CC[C@H]3[C@@H]4C[C@H](Cl)[C@]5(O)[C@@H](O)C=CC(=O)[C@]5(C)[C@H]4CC[C@]23C)C1	28.6 µM	> 40 µM	31.2 µM	> 40 µM	> 40 µM	> 40 µM	33.5 µM	30.6 µM
CC1=C(CO)C(=O)O[C@@H]([C@@H](C)[C@H]2CC[C@H]3[C@@H]4C[C@H]5O[C@]56[C@@H](O)[C@@H](O)CC(=O)[C@]6(C)[C@H]4CC[C@]23C)C1 [VISCOSALACTONE B]	> 40 µM	> 40 µM	> 40 µM	> 40 µM	> 40 µM	> 40 µM	> 40 µM	> 40 µM
CC1=C(CO)C(=O)O[C@@H]([C@@H](C)[C@H]2CC[C@H]3[C@@H]4C[C@H]5O[C@]56[C@@H](O)CC[C@@H](O)[C@]6(C)[C@H]4CC[C@]23C)C1	> 40 µM	> 40 µM	> 40 µM	> 40 µM	> 40 µM	> 40 µM	> 40 µM	> 40 µM
CC(=O)OCC1=C(C)C[C@H]([C@@H](C)[C@H]2CC[C@H]3[C@@H]4C[C@H]5O[C@]56[C@@H](OC(=O)c5ccc(Br)cc5)C=CC(=O)[C@]6(C)[C@H]4CC[C@]23C)OC1=O	0.6 µM	2.1 µM	0.9 µM	1.7 µM	1.2 µM	2.1 µM	0.4 µM	0.5 µM
C=C1C(=O)O[C@@H]([C@@H](C)[C@H]2CC[C@H]3[C@@H]4C[C@H]5O[C@]56[C@@H](O)[C@@H](OC)CC(=O)[C@]6(C)[C@H]4CC[C@]23C)C=C1C	23 µM	> 40 µM	> 40 µM	> 40 µM	> 40 µM	> 40 µM	> 40 µM	> 40 µM
CC1=C(C)C(=O)O[C@@H]([C@@H](C)[C@H]2CC[C@H]3[C@@H]4C[C@H]5O[C@]56[C@@H](O)CCC(=O)[C@]6(C)[C@H]4CC[C@]23C)C1	> 40 µM	> 40 µM	> 40 µM	> 40 µM	> 40 µM	> 40 µM	> 40 µM	> 40 µM
C[C@@H]([C@H]1CC[C@H]2[C@@H]3C[C@H]4O[C@]45[C@@H](O)[C@H]4O[C@H]4C(=O)[C@]5(C)[C@H]3CC[C@]12C)[C@H]1C[C@@]2(C)O[C@@]2(CO)C(=O)O1	> 40 µM	> 40 µM	> 40 µM	> 40 µM	> 40 µM	> 40 µM	> 40 µM	> 40 µM
Sc1ncnc2nc[nH]c12 [MERCAPTOPURINE ANHYDROUS]			> 117 µM					
COc1ccc(C(=O)OCC2=C(C)C[C@H]([C@@H](C)[C@H]3CC[C@H]4[C@@H]5C[C@H](Cl)[C@]6(O)[C@@H](OC(=O)c7ccc(OC)cc7)C=CC(=O)[C@]6(C)[C@H]5CC[C@]34C)OC2=O)cc1	4.5 µM	28.1 µM	3 µM	> 40 µM	11.2 µM	24 µM	3 µM	3.7 µM
CC1=C(CO[Si](C)(C)C(C)(C)C)C(=O)O[C@@H]([C@@H](C)[C@H]2CC[C@H]3[C@@H]4C[C@H](Cl)[C@]5(O)[C@@H](O)C=CC(=O)[C@]5(C)[C@H]4CC[C@]23C)C1	3.1 µM	3.4 µM	3.1 µM	3.8 µM	3.1 µM	4.1 µM	2.5 µM	3.5 µM
COC(=O)CCC(=O)OCC1=C(C)C[C@H]([C@@H](C)[C@H]2CC[C@H]3[C@@H]4C[C@H]5O[C@]56[C@@H](OC(=O)CCC(=O)OC)C=CC(=O)[C@]6(C)[C@H]4CC[C@]23C)OC1=O	1.5 µM	2.9 µM	0.6 µM	3.4 µM	1.8 µM	2.1 µM	1.4 µM	0.7 µM
CO[C@H]1C=CC(=O)[C@]2(C)[C@H]3CC[C@]4(C)[C@@H]([C@H](C)[C@H]5CC(C)=C(CO)C(=O)O5)CC[C@H]4[C@@H]3C[C@H]3O[C@]132	1.7 µM	3.8 µM	1.5 µM	4.4 µM	2.1 µM	4 µM	1.1 µM	0.9 µM
CO[C@H]1CC(=O)[C@]2(C)[C@H]3CC[C@]4(C)[C@@H]([C@H](C)[C@H]5CC(C)=C(CO)C(=O)O5)CC[C@H]4[C@@H]3C[C@H]3O[C@]32[C@H]1O	> 40 µM	> 40 µM	> 40 µM	> 40 µM	> 40 µM	> 40 µM	> 40 µM	> 40 µM
COC(=O)CCC(=O)OCC1=C(C)C[C@H]([C@@H](C)[C@H]2CC[C@H]3[C@@H]4C[C@H]5O[C@]56[C@@H](O)C=CC(=O)[C@]6(C)[C@H]4CC[C@]23C)OC1=O	1.6 µM	2.9 µM	0.6 µM	3.7 µM	0.9 µM	2.3 µM	0.4 µM	0.6 µM
COc1ccc(C(=O)OCC2=C(C)C[C@H]([C@@H](C)[C@H]3CC[C@H]4[C@@H]5C[C@H](Cl)[C@]6(O)[C@@H](O)C=CC(=O)[C@]6(C)[C@H]5CC[C@]34C)OC2=O)cc1	6.8 µM	37.7 µM	6.8 µM	> 40 µM	26.4 µM	> 40 µM	3 µM	3.8 µM
CC1=C(CO[Si](C)(C)C(C)(C)C)C(=O)O[C@@H]([C@@H](C)[C@H]2CC[C@H]3[C@@H]4C[C@H]5O[C@]56[C@@H](O)C=CC(=O)[C@]6(C)[C@H]4CC[C@]23C)C1	1.2 µM	3.1 µM	0.8 µM	4 µM				
Cc1c2oc3c(C)ccc(C(=O)N[C@@H]4C(=O)N[C@H](C(C)C)C(=O)N5CCC[C@H]5C(=O)N(C)CC(=O)N(C)[C@@H](C(C)C)C(=O)O[C@@H]4C)c3nc-2c(C(=O)N[C@@H]2C(=O)N[C@H](C(C)C)C(=O)N3CCC[C@H]3C(=O)N(C)CC(=O)N(C)[C@@H](C(C)C)C(=O)O[C@@H]2C)c(N)c1=O [DACTINOMYCIN] (I: T[dV]P[Sar][NMeV] / II: T[dV]P[Sar][NMeV]; ester I:1-I:C, II:1-II:C; linker I:N-II:N via Actinocin(1to9))	0.048 µM	0.0032 µM	0.011 µM	0.008 µM				
CC1=C(CO)C(=O)O[C@@H]([C@@H](C)[C@H]2CC[C@H]3[C@@H]4C[C@H](Cl)[C@]5(O)[C@@H](O)C=CC(=O)[C@]5(C)[C@H]4CC[C@]23C)C1	7.9 µM	17.5 µM		16.1 µM				
CC(=O)OCC1=C(C)C[C@H]([C@@H](C)[C@H]2CC[C@H]3[C@@H]4C[C@H]5O[C@]56[C@@H](O)C=CC(=O)[C@]6(C)[C@H]4CC[C@]23C)OC1=O	4.6 µM	10.2 µM	5.9 µM					
